The target of one assay is T1, 320 non-olfactory GPCRs (Homo sapiens, UniProt P43119).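 For GPCRome agonism screen response: fold over basal response of each receptor without drug.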
T1 construct: expressed in transfected cells; host or cells: HTLA cells
It counts as cell-based. More on the design: GPCRome screening signal at PTGIR / GPCRome screening signal at PTH1R / GPCRome screening signal at PTH2R / GPCRome screening signal at QRFP / GPCRome screening signal at RXFP2 / GPCRome screening signal at RXFP3 / GPCRome screening signal at RXFP4 / GPCRome screening signal at S1PR2 / GPCRome screening signal at S1PR3 / GPCRome screening signal at S1PR4 / GPCRome screening signal at S1PR5 / GPCRome screening signal at SCTR / GPCRome screening signal at SSTR2 / GPCRome screening signal at SSSTR / GPCRome screening signal at SSTR4 / GPCRome screening signal at SSTR5 / GPCRome screening signal at SUCNR1 / GPCRome screening signal at TA1 / GPCRome screening signal at TAAR2 / GPCRome screening signal at TAAR5 / GPCRome screening signal at TAAR6 / GPCRome screening signal at TAAR8 / GPCRome screening signal at TACR1 / GPCRome screening signal at TACR2 / GPCRome screening signal at TACR3 / GPCRome screening signal at TBXA2R / GPCRome screening signal at TSHR / GPCRome screening signal at UTS2R / GPCRome screening signal at VIPR2 / GPCRome screening signal at GPR68 no V2 Tail / GPCRome screening signal at GRM2 / GPCRome screening signal at GRM3: reference not given here. The conditions noted are these: receptor PTGIR.

A further assay has as its target DRD3 (Homo sapiens, UniProt P35462). The experiment in a line: β-arrestin2 recruitment (Tango). The conditions noted are these: DRD3, Tango. It counts as cell-based. (Activated receptors often draw arrestin, which recruitment assays turn into a signal.)

“And” between values parts separate entries of the source, which are not always exact repeats. Identical values can stand only once.

As usually defined, the EC50 is the midpoint of the concentration-response curve. One may read the Emax as the size of the effect at its maximum, as opposed to the concentration needed.

T1 sequence (P43119 whole entry): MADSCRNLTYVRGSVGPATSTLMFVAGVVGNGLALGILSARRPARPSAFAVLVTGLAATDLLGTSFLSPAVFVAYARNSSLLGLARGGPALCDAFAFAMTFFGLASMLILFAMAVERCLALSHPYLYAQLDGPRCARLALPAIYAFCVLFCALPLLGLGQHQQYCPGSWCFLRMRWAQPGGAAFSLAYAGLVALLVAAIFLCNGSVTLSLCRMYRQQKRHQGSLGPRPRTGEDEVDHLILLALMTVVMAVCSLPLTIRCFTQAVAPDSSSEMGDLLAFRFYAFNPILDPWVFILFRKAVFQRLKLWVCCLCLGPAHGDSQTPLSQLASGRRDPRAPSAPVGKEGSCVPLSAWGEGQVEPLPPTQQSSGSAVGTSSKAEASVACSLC
Chain of DRD3 (P35462 whole entry): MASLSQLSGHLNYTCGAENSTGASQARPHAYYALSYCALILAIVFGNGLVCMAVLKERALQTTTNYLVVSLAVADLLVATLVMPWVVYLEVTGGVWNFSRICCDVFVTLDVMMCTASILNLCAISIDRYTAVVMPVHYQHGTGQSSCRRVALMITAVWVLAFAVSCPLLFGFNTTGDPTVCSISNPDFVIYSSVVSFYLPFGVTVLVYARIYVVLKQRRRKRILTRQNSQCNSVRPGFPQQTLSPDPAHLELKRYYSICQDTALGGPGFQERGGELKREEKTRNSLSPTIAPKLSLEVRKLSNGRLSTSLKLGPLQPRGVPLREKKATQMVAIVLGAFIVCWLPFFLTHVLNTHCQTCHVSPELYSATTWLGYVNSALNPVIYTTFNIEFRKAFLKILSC

Consider `CCOc1ccccc1CCC(C)NCC1(O)CCCCC1.Cl` (racemic) [Fig_5f], for which, on 320 non-olfactory GPCRs (Fig_5f, single replicate values), the “GPCRome screening signal at PTGIR” value is 0.4707 and 0.7235 and 1.819 and 1.564.
For the compound `CCOc1cccc2cc(C(C)NCC3(O)CCCCC3)oc12` (stereo not shown) [O4LE6], the concentration for a half-maximal effect (EC50) on DRD3 (read-out: EC50 ± SEM) came out at 708.5 ± 6.3 nM. At DRD3 (read-out: Emax relative to quinpirole response), the Emax amounted to 15.8%. On 320 non-olfactory GPCRs (replicate values, Fig_4g), the “GPCRome agonism screen response” value was 1.654 and 0.8806 and 0.8629 and 1.301.
